Data from patent US10221182B2, “3,3-difluoro-piperidine derivatives as NR2B NMDA receptor antagonists” (Rugen Holdings (Cayman) Limited, priority 2015, dated 2019).

Key:
human NR1/NR2A = human NR1/NR2A (Homo sapiens (Human), UniProt Q05586+Q12879); test: NR2A antagonist activity, Fluo-4 calcium influx assay in HEK293 cells; assay type: cell-based
Description: (§1) Activation of the NR2A or NR2B subtype of NMDA receptor with glutamate as an agonist and glycine co-agonist on these cells results in calcium influx, which can be monitored with fluorescent indicator Fluo-4.
(§2) For experiments, the cells were seeded onto poly-D-lysine-coated 96-well black plates with clear bottom (Corning) at a density of ˜50,000 cells/well. After overnight culture, the growth medium was removed from the wells and the cells were incubated at 37° C. for 60 min in Hanks buffer containing 4 μM fluo-4-AM (Invitrogen) and 0.1% bovine serum albumin (BSA). After dye-loading, the cells were washed three times with Hanks buffer and incubated for 10 min at room temperature with various concentrations of test compounds prepared in Hanks buffer with 0.1% BSA. The cell plates were placed onto FDSS μCell fluorescence reader (Hamamatsu). After 20 sec reading of background fluorescence, agonist glutamate at final 100 μM and co-agonist glycine at final 50 μM were added to the cells to activate the receptor, and the resulting fluorescence changes were recorded and quantified. Based on the changes in fluorescence intensity, the pharmacological effect of test compounds were analyzed and the IC50 values derived from a non-linear least squares fitting of the concentration-dependent response to a standard logistic equation using Prism (Graphpad, Inc): Amplitude=Max Amplitude/(1+([…])^n).

hERG channel = hERG channel (Homo sapiens (Human), UniProt Q12809)
Sequence of hERG channel (Q12809 whole entry): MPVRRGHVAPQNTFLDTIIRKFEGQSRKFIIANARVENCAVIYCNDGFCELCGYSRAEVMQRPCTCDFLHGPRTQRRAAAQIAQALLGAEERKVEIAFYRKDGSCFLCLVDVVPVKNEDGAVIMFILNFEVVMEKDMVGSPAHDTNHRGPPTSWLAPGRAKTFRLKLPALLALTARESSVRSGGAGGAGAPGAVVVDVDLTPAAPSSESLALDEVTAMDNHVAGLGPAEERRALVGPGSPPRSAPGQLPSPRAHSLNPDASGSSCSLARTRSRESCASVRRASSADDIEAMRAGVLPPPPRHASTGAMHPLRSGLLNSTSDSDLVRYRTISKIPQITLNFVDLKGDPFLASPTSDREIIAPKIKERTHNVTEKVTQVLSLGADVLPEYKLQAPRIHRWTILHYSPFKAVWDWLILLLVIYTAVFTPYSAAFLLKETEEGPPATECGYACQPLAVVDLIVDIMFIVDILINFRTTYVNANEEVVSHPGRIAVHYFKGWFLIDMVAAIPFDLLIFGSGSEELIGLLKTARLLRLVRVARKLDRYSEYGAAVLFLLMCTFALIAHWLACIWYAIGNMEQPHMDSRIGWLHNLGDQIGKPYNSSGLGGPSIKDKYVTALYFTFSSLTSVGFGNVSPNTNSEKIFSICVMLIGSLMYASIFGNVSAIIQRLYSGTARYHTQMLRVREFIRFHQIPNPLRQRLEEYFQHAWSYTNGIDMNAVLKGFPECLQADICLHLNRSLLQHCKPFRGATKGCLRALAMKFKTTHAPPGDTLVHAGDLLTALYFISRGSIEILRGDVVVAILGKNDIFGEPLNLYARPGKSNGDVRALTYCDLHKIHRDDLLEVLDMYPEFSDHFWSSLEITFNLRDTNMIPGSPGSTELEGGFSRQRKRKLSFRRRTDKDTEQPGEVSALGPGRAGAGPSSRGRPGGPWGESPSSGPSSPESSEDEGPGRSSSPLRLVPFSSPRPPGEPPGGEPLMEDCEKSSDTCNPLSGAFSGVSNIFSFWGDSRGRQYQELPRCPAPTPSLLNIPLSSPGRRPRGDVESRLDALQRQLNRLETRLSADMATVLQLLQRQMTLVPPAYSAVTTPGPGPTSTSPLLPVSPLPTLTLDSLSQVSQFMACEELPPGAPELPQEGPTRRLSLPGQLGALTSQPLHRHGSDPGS

human NR1/NR2B = human NR1/NR2B (Homo sapiens (Human), UniProt Q05586+Q13224); test: NR2B antagonist activity, Fluo-4 calcium influx assay in HEK293 cells; assay type: cell-based; conditions: hNR2B IC50, HEK293 cells expressing NR1/NR2B; glutamate 100 μM, glycine 50 μM
Sequence of human NR1/NR2B (Q13224 27-1484, other chains not shown): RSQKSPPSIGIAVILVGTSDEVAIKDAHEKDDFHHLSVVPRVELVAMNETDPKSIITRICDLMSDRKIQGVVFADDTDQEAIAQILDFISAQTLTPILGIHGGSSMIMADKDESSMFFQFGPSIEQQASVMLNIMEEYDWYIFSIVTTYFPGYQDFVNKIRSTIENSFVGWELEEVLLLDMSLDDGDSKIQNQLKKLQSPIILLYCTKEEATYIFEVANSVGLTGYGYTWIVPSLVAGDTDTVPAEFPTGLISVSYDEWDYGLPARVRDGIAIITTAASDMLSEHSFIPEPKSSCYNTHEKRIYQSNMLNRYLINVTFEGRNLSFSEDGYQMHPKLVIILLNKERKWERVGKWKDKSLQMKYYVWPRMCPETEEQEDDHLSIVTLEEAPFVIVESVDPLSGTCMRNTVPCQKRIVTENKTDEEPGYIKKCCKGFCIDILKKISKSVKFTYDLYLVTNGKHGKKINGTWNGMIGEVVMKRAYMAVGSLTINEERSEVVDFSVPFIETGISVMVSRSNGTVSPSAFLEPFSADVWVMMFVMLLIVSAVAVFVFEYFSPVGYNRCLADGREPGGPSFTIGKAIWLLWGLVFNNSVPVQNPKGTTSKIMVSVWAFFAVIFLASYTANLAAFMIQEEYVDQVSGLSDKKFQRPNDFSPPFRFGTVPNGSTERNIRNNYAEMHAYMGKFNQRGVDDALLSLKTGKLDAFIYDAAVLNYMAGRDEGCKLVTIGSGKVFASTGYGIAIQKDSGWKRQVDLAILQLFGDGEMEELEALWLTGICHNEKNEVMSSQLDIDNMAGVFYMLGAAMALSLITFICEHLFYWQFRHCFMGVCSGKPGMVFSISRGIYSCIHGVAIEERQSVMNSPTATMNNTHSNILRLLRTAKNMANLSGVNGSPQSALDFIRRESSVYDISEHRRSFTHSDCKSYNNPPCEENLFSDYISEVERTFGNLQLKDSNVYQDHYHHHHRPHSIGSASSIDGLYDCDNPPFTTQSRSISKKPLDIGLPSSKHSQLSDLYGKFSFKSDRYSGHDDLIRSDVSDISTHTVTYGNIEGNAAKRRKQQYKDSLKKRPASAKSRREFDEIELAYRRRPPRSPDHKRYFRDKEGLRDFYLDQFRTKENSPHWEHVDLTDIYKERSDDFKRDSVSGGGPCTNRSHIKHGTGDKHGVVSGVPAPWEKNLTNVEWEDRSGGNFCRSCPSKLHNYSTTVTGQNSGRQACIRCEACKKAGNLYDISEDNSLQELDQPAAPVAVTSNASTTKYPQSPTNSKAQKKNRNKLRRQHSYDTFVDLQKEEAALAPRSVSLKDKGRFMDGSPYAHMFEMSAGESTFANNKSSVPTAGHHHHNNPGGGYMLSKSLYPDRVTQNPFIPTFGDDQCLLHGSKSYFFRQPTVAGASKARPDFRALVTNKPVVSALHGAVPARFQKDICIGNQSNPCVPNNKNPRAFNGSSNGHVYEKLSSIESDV
Description: as §1, §2

mice = test: Forced swim test (FST); assay type: in vivo; conditions: male mice, intraperitoneal; imipramine 32 mg/kg IP
Description: Procedure. Male mice (strain NLMN) weighing 25-35 g were used for testing. All animals were housed in a temperature (22-24° C.) and humidity (50-60%) controlled environment with free access to food and water on a 12-hour light-dark cycle. Test compounds were dissolved in 0.5% dimethylsulfoxide, 4% hydroxypropyl-β-cyclodextrin water to generate the appropriate dosing solution. Drugs were administered by intraperitoneal injection at a dose volume of 10 mL/kg. Testing was initiated 20-60 minutes after dosing. […] Mice were placed in a white plastic cylinder 20 cm high with a diameter of 21 cm containing 10 cm of water at 25±2° C. The mice were videotaped for 6 minutes, and the last 4 minutes of video were analyzed by a blinded observer off-line. The observer judged the animal to be immobile when it ceased all activity (struggling, swimming, jumping etc.) and floated passively atop the water. The amount of time each animal spent in the immobile state was recorded and used for statistical analysis of compound effect. Group differences were evaluated by student's t-test or one-way ANOVA followed by post-hoc Dunnett's test.

Sequence of human NR1/NR2A (Q12879 23-1464, other chains not shown): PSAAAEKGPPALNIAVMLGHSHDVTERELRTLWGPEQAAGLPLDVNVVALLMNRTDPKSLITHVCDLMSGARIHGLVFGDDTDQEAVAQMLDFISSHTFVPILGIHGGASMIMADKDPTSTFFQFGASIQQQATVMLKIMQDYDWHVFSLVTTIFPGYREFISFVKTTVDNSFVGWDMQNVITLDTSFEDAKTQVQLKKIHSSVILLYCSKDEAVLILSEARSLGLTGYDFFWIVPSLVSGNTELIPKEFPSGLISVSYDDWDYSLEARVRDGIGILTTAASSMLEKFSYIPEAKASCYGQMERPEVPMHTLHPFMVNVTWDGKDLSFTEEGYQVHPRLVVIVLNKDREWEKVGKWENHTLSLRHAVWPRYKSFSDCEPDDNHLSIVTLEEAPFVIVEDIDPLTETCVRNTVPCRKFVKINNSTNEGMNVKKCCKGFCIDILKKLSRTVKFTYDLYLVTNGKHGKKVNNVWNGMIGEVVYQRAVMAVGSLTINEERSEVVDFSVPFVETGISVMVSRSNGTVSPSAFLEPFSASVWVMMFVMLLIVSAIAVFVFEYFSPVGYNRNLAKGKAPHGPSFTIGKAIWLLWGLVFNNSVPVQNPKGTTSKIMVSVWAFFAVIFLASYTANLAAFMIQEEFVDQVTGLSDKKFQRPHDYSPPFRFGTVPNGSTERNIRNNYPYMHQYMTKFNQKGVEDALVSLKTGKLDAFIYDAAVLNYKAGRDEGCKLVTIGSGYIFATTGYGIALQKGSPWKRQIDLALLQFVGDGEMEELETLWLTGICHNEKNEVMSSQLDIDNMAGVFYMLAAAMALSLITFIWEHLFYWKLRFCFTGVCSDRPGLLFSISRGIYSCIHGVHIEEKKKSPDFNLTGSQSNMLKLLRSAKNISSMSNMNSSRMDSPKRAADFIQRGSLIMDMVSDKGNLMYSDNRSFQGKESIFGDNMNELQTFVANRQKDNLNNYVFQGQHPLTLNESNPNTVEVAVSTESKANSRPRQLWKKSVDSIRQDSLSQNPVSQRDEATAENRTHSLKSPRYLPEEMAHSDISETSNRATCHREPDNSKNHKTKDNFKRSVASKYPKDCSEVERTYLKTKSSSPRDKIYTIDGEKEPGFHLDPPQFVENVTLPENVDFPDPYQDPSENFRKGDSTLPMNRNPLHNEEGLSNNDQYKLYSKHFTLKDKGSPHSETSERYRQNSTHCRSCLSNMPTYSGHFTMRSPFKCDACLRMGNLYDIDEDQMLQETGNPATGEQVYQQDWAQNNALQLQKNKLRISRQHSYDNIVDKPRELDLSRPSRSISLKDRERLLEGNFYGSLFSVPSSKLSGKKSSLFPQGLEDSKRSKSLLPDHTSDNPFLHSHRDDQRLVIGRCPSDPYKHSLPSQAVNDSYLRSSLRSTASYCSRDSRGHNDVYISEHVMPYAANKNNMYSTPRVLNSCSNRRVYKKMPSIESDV

## CN(c1ncnc2[nH]ncc12)C1CCN(CCc2ccc(C(F)(F)F)cc2)CC1(F)F (racemic) [C-1.33]
Human NR1/NR2A
  IC50: > 10 µM
hERG channel
  hERG @ 10 μM: 59%
Human NR1/NR2B
  IC50: 0.103 µM

## CN(C)CCCN1c2ccccc2CCc2ccccc21 [imipramine]
mice
  antidepressant activity (immobility time): showed the expected antidepressant activity
